Literature values in US9592004B2, “Methods and systems for managing epilepsy and other neurological disorders” (CYBERONICS, INC., priority 2005, dated 2017).
Like-named read-outs stand apart in the source and are kept apart here.

How the values were obtained:
[1] = not given; remark: listed apart in the source
[2] = test system: cultured mouse spinal cord neurons; conditions: 10-30 μg/mL
partial seizures = conditions: controlled trials, adjunctive therapy, adults, oral
[3] = test system: dopaminergic and serotonergic neurotransmission; conditions: in vivo microdialysis
[4] = test system: GABA/benzodiazepine receptor ionophore complex; conditions: in vitro; does not produce changes in chloride flux
rat hippocampal slices = conditions: 10-30 μg/mL
T-type Ca^2+ currents = conditions: in vitro
sodium channels = conditions: in vitro
seizure = conditions: intranasal
[5] = long term therapy, per daily dose of 1 mg/kg of primidone

SMILES: CCC1(C)CC(=O)NC1=O (stereo not shown) [ethosuximide, Ethosuximide]
- average plasma concentration (long-term therapy, per daily dose of 1 mg/kg): about 2 μg/ml

SMILES: CCC1(c2ccccc2)C(=O)NCNC1=O [primidone, Primidone]
- average plasma concentration [5]: about 1 μg/ml

SMILES: CCC1(c2ccccc2)C(=O)NC(=O)NC1=O [phenobarbital, Phenobarbital]
- average plasma concentration (long term therapy in adults, per daily dose of 1 mg/kg): about 10 μg/ml
- average plasma concentration [5]: about 2 μg/ml

SMILES: O=C1NC(=O)C(c2ccccc2)(c2ccccc2)N1 [Phenytoin, diphenylhydantoin]
- concentration at which toxic effects such as nystagmus develop [1]: around 20 μg/ml
- concentration giving chronic control of seizures (seizures): above 10 μg/ml

SMILES: NS(=O)(=O)Cc1noc2ccccc12 [zonisamide, 1,2-benzisoxazole-3-methanesulfonamide]
- effect on synaptically-driven electrical activity [2]: suppresses synaptically-driven electrical activity
- effect on postsynaptic GABA or glutamate responses ([2]; cultured mouse spinal cord neurons): without affecting postsynaptic GABA or glutamate responses
- effective doses (partial seizures): 100 to 600 mg/day
- carbonic anhydrase inhibiting activity (carbonic anhydrase): weak carbonic anhydrase inhibiting activity
- effect on dopaminergic and serotonergic neurotransmission [3]: facilitates both dopaminergic and serotonergic neurotransmission
- binding to GABA/benzodiazepine receptor ionophore complex [4]: binds to the GABA/benzodiazepine receptor ionophore complex in an allosteric fashion
- effect on neuronal or glial uptake of [3H]-GABA (rat hippocampal slices): without affecting
- effect on T-type Ca2+ currents (T-type Ca^2+ currents): reduces voltage-dependent, transient inward currents
- effect on sodium channels (sodium channels): blocks sodium channels

SMILES: Cc1ncc2n1-c1ccc(Cl)cc1C(c1ccccc1F)=NC2 [Midazolam, midazolam]
- time to terminate a seizure (seizure): 30 s
